From patent US12398153B2, “Spiro compound serving as ERK inhibitor, and application thereof” (D3 BIO (WUXI) CO., LTD., priority 2019, dated 2025)
Read-outs that look alike come from different tables or passages of the source.

Tests used:
HT29 tumor cells = assay: In vitro cell proliferation inhibition assay (CellTiterGlo); type: cell-based
Method: Assay Example 2. In Vitro Cell Proliferation Inhibition Assay
The ability of compounds to inhibit the proliferation of HT29 tumor cells was measured.
The assay compound was dissolved in 100% DMSO to prepare 10 mM stock solution.
• 1) UV light of a biological safety cabin was turned on, and 30 minutes were counted down; • 2) In a 37° C. water bath, RPMI1640 medium and trypsin were preheated; • 3) After completion of the UV irradiation, the biological safety cabin was opened. The preheated medium, trypsin and phosphate buffered saline (PBS), etc. were wiped with alcohol and placed in the biological safety cabin; • 4) HT29 cells were removed from the incubator, and the old medium was removed in biological safety cabin. 10 ml of PBS was added. The mixture was shaken gently, and then PBS was removed; • 5) 1.5 ml of preheated 0.25% trypsin was added. The culture vessel was shaken horizontally so that the trypsin evenly covered the cells at the bottom, and placed in an incubator for 2 minutes; • 6) Cell digestion was stopped with complete medium, and the cell suspension was pipetted to homogeneity and counted; • 7) According to the result of cell counting, the density of cell suspension was adjusted to 1500 cells per well, and the cell suspension was seeded at 50 μl per well; • 8) The stock solution of compounds was serially diluted in DMSO solution, and compounds were added to cell plate using Tecan;
9) The compound-added cell plate and CellTiterGlo were equilibrated at room temperature, and 25 microliters of CellTiterGlo was then added to each well. The cell plate was shaken for 1-2 minutes and then allowed to stand for 10 minutes. The signal value was then detected. The data were analyzed using XL-Fit, and the IC50 of each compound was calculated.

ERK2 kinase = ERK2 kinase (Homo sapiens (Human), UniProt P28482); assay: Assay of in vitro kinase activity (33P-ATP filter-binding, MBP substrate); type: biochemical
ERK2 kinase, sequence (P28482 whole entry): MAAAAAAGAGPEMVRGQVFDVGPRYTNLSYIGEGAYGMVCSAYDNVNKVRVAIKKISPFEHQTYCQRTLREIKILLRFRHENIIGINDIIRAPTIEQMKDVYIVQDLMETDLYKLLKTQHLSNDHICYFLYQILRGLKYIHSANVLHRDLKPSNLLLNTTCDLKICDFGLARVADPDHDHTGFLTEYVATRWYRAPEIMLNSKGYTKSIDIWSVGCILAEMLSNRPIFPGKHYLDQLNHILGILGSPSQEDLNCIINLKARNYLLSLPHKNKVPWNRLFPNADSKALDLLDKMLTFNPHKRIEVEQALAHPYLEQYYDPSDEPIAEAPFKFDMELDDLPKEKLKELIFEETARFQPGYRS
Method: Assay Example 1. Assay of In Vitro Kinase Activity
The ability of compounds to inhibit ERK2 kinase activity was measured.
20 mM Hepes (pH 7.5), 10 mM MgCl2, 1 mM ethylenebis(oxyethylenenitrilo)tetraacetic acid (EGTA), 0.02% Brij35, 0.02 mg/mL bovine serum albumin (BSA), 0.1 mM Na3VO4, 2 mM dithiothreitol (DTT), 1% DMSO.
The assay compound was dissolved in 100% DMSO to prepare a stock solution of specific concentration. The compound was serially diluted in DMSO solution using Integra Viaflo Assist smart pipette.
• 1) The substrate MBP was prepared in freshly prepared reaction buffer; • 2) ERK2 kinase was added to the above-mentioned MBP solution and mixed gently; • 3) The compound dissolved in 100% DMSO was added to the kinase reaction system using ultrasound technology (Echo550; nanoliter range), and the mixture was incubated at room temperature for 20 minutes; • 4) ^33P-ATP (specific concentration of […]) was added to the reaction system, and the reaction was started at this time; • 5) The mixture was incubated at room temperature for 2 hours; • 6) The amount of radioactivity was detected by filter-binding method; • 7) ERK2 kinase activity was calculated as the ratio of the remaining kinase activity in the assay sample to the kinase activity of the control group (treated by DMSO). Curve was fitted using Prism (GraphPad software) and IC50 values were calculated. 5.

[1] = In vivo DMPK assay in mouse; details: female BALB/c mice; for Oral DNAUC (AUCPO/Dose) / Cmax: 3 mg/kg orally; for clearance / Vd / bioavailability / half-life / Cmax: mouse, plasma; for clearance / Vd: iv, 1 mg/kg intravenously; for clearance: read-out: Cl (clearance rate); for Vd: read-out: Vdss (distribution volume); for bioavailability / Cmax: po; for bioavailability: 1 mg/kg intravenously and 3 mg/kg orally, read-out: F % (oral bioavailability); for half-life: single administration, read-out: T1/2 (half-life) (converted); for Cmax: read-out: Cmax (maximum concentration)
Text: Assay Example 3. Assay of In Vivo DMPK
In vivo DMPK assay in mouse
Female BALB/c mice were used as assay animals to determine the blood concentration of compounds and evaluate the pharmacokinetic behavior after a single administration.
Eight healthy adult female BALB/c mice were selected, wherein 4 mice were in the intravenous injection group and 4 mice were in the oral group. The vehicle in the intravenous injection group was 5% DMSO+95% (20% HP-β-CD). The compound to be assayed was mixed with an appropriate amount of vehicle for intravenous injection, vortexed and sonicated to prepare a clear solution of 0.5 mg/mL. The clear solution was filtered by a microporous membrane, and then ready for use. The vehicle in the oral group was 5% DMSO+95% (20% HP-β-CD). The compound to be assayed was mixed with the vehicle, vortexed and sonicated to prepare a solution of 0.3 mg/mL. Mice were administered 1 mg/kg intravenously or 3 mg/kg orally, and then whole blood was collected for a certain period. Plasma was prepared. The drug concentration was analyzed by LC-MS/MS method, and the pharmacokinetic parameters were calculated by Phoenix WinNonlin software (Pharsight, USA).
Note: DMSO: dimethyl sulfoxide; HP-β-CD: hydroxypropyl-β-cyclodextrin.

[2] = tested on: human colon cancer HCT-116 cells; assay: In vivo efficacy, subcutaneous xenograft tumor of human colon cancer HCT-116 cells in BALB/c nude mouse; details: 15 mg/kg, PO, QD
Method: Assay Example 4. Assay of In Vivo Efficacy of Subcutaneous Xenograft Tumor of Human Colon Cancer HCT-116 Cells in BALB/c Nude Mouse Model
The anti-tumor effect of WX007 was evaluated using a subcutaneous xenograft tumor model of human colon cancer HCT-116 cells in nude mouse.
• Species: mouse • Strain: BALB/c nude mouse • Age: 6-8 weeks old • Gender: female • Weight: 17-23 grams • Vendor: Laboratory Animal Management Department, Shanghai Institute for Biomedical and Pharmaceutical Technologies • Animal certificate number: 20180006020214 3. Assay Procedure: • 1) Assay cells and culture: Human colon cancer HCT-116 cells were cultured in monolayer in vitro. […] When the cell saturation was 80%-90% and the amount reached the requirement, the cells were harvested, counted, and inoculated; • 2) Tumor tissue inoculation and grouping: 0.2 mL (5×10^6) of HCT-116 cells were subcutaneously inoculated into the right armpit of each mouse. […]
• 3) Daily observation of assay animals: The development of this assay protocol and any modifications were evaluated and approved by the Institutional Animal Care and Use Committee (IACUC). […] Animals were monitored daily for health and death. […] The compound was formulated once a week. • 5) Tumor measurement and assay indicator: • a) Tumor diameter was measured twice a week with a vernier caliper. […]

Row | SMILES | IC50 (HT29 tumor cells; Homo sapiens, HT-29) | IC50 (ERK2 kinase) | Oral DNAUC (AUCPO/Dose) [1] | clearance [1] | Vd [1] | bioavailability [1] | half-life [1] | Cmax [1] | TGI (inhibition rate of tumor growth) ([2]; 18th day, HCT-116 xenograft in nude mouse) | Body weight of assay animals ([2]; to the 18th day) | IC50 (HT29 tumor cells)
1 | O=C1c2nc(-c3ccnc(NC4CCOCC4)n3)sc2C2(CCOCC2)N1Cc1cccc(Cl)c1 [WX003] | 69 nM | 0.29 nM | – | – | – | – | – | – | – | – | –
2 | Cc1cnc(Nc2ccnn2C)nc1-c1nc2c(s1)C1(COC1)N(Cc1cccc(Cl)c1)C2=O [WX007] | 11 nM | 0.48 nM | 1086 nM · h/mpk | 14.4 mL/min/kg | 1.7 L/kg | 46% | 1.3 h | 595 nM | 62% | did not decrease significantly | –
3 | Cc1cnc(Nc2ccnn2C)nc1-c1nc2c(s1)C1(COC1)N(Cc1cccc(F)c1)C2=O [WX006] | 14 nM | 0.94 nM | 1356 nM · h/mpk | 17.2 mL/min/kg | 1.7 L/kg | 70% | 1.4 h | 1400 nM | – | – | –
4 | Cn1nccc1Nc1nccc(-c2nc3c(s2)C2(COC2)N(Cc2cccc(Cl)c2)C3=O)n1 [WX005] | 49 nM | 0.36 nM | – | – | – | – | – | – | – | – | –
5 | Cn1nccc1Nc1nccc(-c2nc3c(s2)C2(CCOCC2)N(Cc2cccc(Cl)c2)C3=O)n1 [WX002] | 73 nM | 0.4 nM | – | – | – | – | – | – | – | – | –
6 | Cn1nccc1Nc1nccc(-c2nc3c(s2)[C@@]2(CCOC2)N(Cc2cccc(Cl)c2)C3=O)n1 [WX001A] | – | 0.31 nM | – | – | – | – | – | – | – | – | 21 nM
7 | Cn1nccc1Nc1nccc(-c2nc3c(s2)C2(COC2)N(Cc2cccc(F)c2)C3=O)n1 [WX004] | 125 nM | 1.1 nM | – | – | – | – | – | – | – | – | –
